Reference: ChEMBL document CHEMBL1201862, “PubChem BioAssay data set” (2004)
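Where inhibition never reached the appropriate level, the endpoint shown equals the highest concentration tested. Otherwise, values were interpolated linearly from a five-concentration, 48-hour dose response in 96-well plates. At the GI50, growth is halved.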 Calls of active or inactive are those of the source. Cut-off read from the data, not from the text of the source: active = GI50 up to about 1.1 µM and inactive = higher.

Experiments:
Experiment in all cases: inhibition of tumour cell growth, NCI panel, 48 h
IGROV-1 = system: IGROV-1
SR = system: SR
HL-60 = system: HL-60
NCI-H23 = system: NCI-H23
ACHN = system: ACHN
OVCAR-8 = system: OVCAR-8
COLO 205 = system: COLO 205
U-251 = system: U-251
SNB-19 = system: SNB-19
OVCAR-3 = system: OVCAR-3
HCT-116 = system: HCT-116
CAKI-1 = system: CAKI-1
OVCAR-4 = system: OVCAR-4
UACC-257 = system: UACC-257
NCI-H522 = system: NCI-H522

Measured: GI50

C=CCCOC(=O)CO[N+](=O)[O-]
inactive: IGROV-1 > 100 µM | SR > 100 µM | HL-60 23.2 µM | NCI-H23 > 100 µM | ACHN > 100 µM | OVCAR-8 > 100 µM | COLO 205 > 100 µM | U-251 > 100 µM | SNB-19 > 100 µM | OVCAR-3 > 100 µM | HCT-116 > 100 µM | CAKI-1 > 100 µM | OVCAR-4 > 100 µM | UACC-257 > 100 µM | NCI-H522 > 100 µM

COC(=O)C(Cc1nc2ccccc2nc1O)/C(=N\NC(C)(C)C)C(=O)Nc1c(C)cc(Br)cc1C (configuration not stated)
inactive: IGROV-1 36.3 µM | SR 20.5 µM | NCI-H23 25.2 µM | ACHN 32.9 µM | OVCAR-8 21.9 µM | COLO 205 17.4 µM | U-251 19.2 µM | SNB-19 31.1 µM | OVCAR-3 > 10 µM | HCT-116 18.6 µM | CAKI-1 24.5 µM | OVCAR-4 34.8 µM | UACC-257 33.9 µM | NCI-H522 15.1 µM

COc1ccc(-c2cc(O)c3cc4c(cc3n2)OCO4)cc1
inactive: IGROV-1 > 100 µM | SR > 100 µM | HL-60 > 100 µM | NCI-H23 > 100 µM | ACHN > 100 µM | OVCAR-8 > 100 µM | COLO 205 > 100 µM | U-251 > 100 µM | SNB-19 55.5 µM | OVCAR-3 > 100 µM | HCT-116 > 100 µM | OVCAR-4 > 100 µM | UACC-257 > 100 µM

CC1OC(n2cc(F)c(=O)[nH]c2=O)C=CC1=O (configuration not stated)
inactive: IGROV-1 29.8 µM | SR 21.5 µM | HL-60 17.9 µM | NCI-H23 83 µM | ACHN 18 µM | OVCAR-8 20.7 µM | COLO 205 32.2 µM | U-251 14.8 µM | SNB-19 17.4 µM | OVCAR-3 16 µM | HCT-116 16.3 µM | CAKI-1 14.5 µM | OVCAR-4 18.1 µM | UACC-257 17.9 µM | NCI-H522 9.38 µM

CSC1NC=Nc2c1sc(=S)n2-c1ccccc1 (configuration not stated)
inactive: IGROV-1 > 100 µM | SR > 100 µM | NCI-H23 > 100 µM | ACHN > 100 µM | OVCAR-8 > 100 µM | COLO 205 > 100 µM | U-251 > 100 µM | SNB-19 > 100 µM | OVCAR-3 54.1 µM | HCT-116 > 100 µM | CAKI-1 > 100 µM | OVCAR-4 89.1 µM | UACC-257 > 100 µM | NCI-H522 > 100 µM

Nc1nc(N)c(CCCCc2ccccc2)c(C=O)n1
inactive: IGROV-1 17.8 µM | NCI-H23 19 µM | ACHN 22.5 µM | OVCAR-8 16.3 µM | COLO 205 31.8 µM | U-251 22.9 µM | SNB-19 16.1 µM | OVCAR-3 14.3 µM | HCT-116 13.1 µM | CAKI-1 27.3 µM | OVCAR-4 23.9 µM | UACC-257 13.6 µM

CC1(C2CCC3(C)C(C2)C3Sc2ccccc2)OCCO1 (configuration not stated)
inactive: IGROV-1 35.7 µM | HL-60 12.1 µM | NCI-H23 22.4 µM | ACHN 20.7 µM | OVCAR-8 31.8 µM | COLO 205 19.4 µM | U-251 19.8 µM | SNB-19 27 µM | OVCAR-3 14.4 µM | HCT-116 15.5 µM | CAKI-1 20.3 µM | OVCAR-4 31.3 µM | UACC-257 17.5 µM | NCI-H522 18.9 µM

CC1CC2OC(=O)CC2C[C@@H]1O[Si](C)(C)C(C)(C)C (some centres not stated)
inactive: IGROV-1 74.5 µM | HL-60 20.6 µM | NCI-H23 63 µM | ACHN 43.9 µM | OVCAR-8 81.5 µM | COLO 205 74.6 µM | SNB-19 > 100 µM | OVCAR-3 40.4 µM | HCT-116 38.5 µM | CAKI-1 70.5 µM | OVCAR-4 61 µM | UACC-257 61.8 µM

C=C1C(=O)O[C@H]2C[C@@H](C)[C@@H]3CC(=O)OC[C@@]3(C)CC12 (some centres not stated)
inactive: IGROV-1 51.6 µM | NCI-H23 23.3 µM | ACHN 21.7 µM | OVCAR-8 17.9 µM | COLO 205 20.9 µM | U-251 97.3 µM | SNB-19 53.1 µM | OVCAR-3 28 µM | HCT-116 21 µM | CAKI-1 18 µM | OVCAR-4 22.8 µM | NCI-H522 3.56 µM

C[C@@H]1C[C@H]2[C@@H]3CCC4=CC(=O)C=C[C@]4(C)[C@@]3(F)[C@@H](O)C[C@]2(C)[C@@]1(O)C(=O)CO [DEXAMETHASONE]
inactive: IGROV-1 > 100 µM | SR 49.3 µM | HL-60 > 100 µM | NCI-H23 > 100 µM | ACHN > 100 µM | OVCAR-8 > 100 µM | COLO 205 > 100 µM | OVCAR-3 > 100 µM | HCT-116 > 100 µM | CAKI-1 > 100 µM | OVCAR-4 > 100 µM | UACC-257 > 100 µM | NCI-H522 > 100 µM

C=CC1[C@H]2COC(C)(C)O[C@@H]2CC(=O)C1(C)C (some centres not stated)
inactive: HL-60 > 100 µM | NCI-H23 > 100 µM | ACHN 94 µM | OVCAR-8 > 100 µM | COLO 205 > 100 µM | U-251 > 100 µM | SNB-19 > 100 µM | HCT-116 > 100 µM | CAKI-1 > 100 µM | OVCAR-4 > 100 µM | UACC-257 > 100 µM | NCI-H522 > 100 µM

N#CC1(Cc2ccccc2)CCCCN1C(=O)c1ccccc1 (configuration not stated)
inactive: IGROV-1 > 100 µM | SR 44.7 µM | HL-60 45.2 µM | NCI-H23 > 100 µM | ACHN > 100 µM | OVCAR-8 > 100 µM | COLO 205 > 100 µM | U-251 > 100 µM | SNB-19 > 100 µM | OVCAR-3 > 100 µM | HCT-116 > 100 µM | OVCAR-4 > 100 µM | UACC-257 > 100 µM

COc1ccc(/C=C2\Cc3ccccc3C2=O)cc1OC
inactive: IGROV-1 > 100 µM | NCI-H23 91.6 µM | ACHN > 100 µM | OVCAR-8 > 100 µM | COLO 205 > 100 µM | U-251 > 100 µM | SNB-19 > 100 µM | OVCAR-3 > 100 µM | CAKI-1 > 100 µM | OVCAR-4 > 100 µM | UACC-257 > 100 µM | NCI-H522 70.6 µM

CCOC(=O)CP(=S)(S)c1ccccc1 (configuration not stated)
inactive: SR > 100 µM | HL-60 > 100 µM | NCI-H23 > 100 µM | ACHN > 100 µM | OVCAR-8 > 100 µM | COLO 205 > 100 µM | U-251 > 100 µM | SNB-19 > 100 µM | CAKI-1 > 100 µM | OVCAR-4 > 100 µM | UACC-257 > 100 µM | NCI-H522 > 100 µM

O=C1N=C2N=C(c3ccc(Cl)cc3)N(c3ccc(Cl)cc3)N2Sc2ccccc21
inactive: IGROV-1 > 100 µM | HL-60 > 100 µM | NCI-H23 > 100 µM | ACHN > 100 µM | OVCAR-8 > 100 µM | COLO 205 > 100 µM | U-251 23.5 µM | SNB-19 47.2 µM | OVCAR-3 > 100 µM | HCT-116 > 100 µM | CAKI-1 > 100 µM | OVCAR-4 > 100 µM | UACC-257 > 100 µM | NCI-H522 > 100 µM
